Measurements from patent US11806350B2, “Prevention and/or treatment of CNS disorders” (ILDONG PHARMACEUTICAL CO., LTD., priority 2020, dated 2023).

Key:
[1] = target: T1, Human recombinant adenosine A1 receptors (Homo sapiens, UniProt P30542); experiment: Human adenosine A1 receptor binding assay ([3H]DPCPX); settings: membranes of CHO-K1 cells, 1 nM [3H]DPCPX, 90 minutes at 25° C.; read-out: hAl Ki
T1 construct: expressed in transfected cells; host or cells: CHO-K1 cells (membrane preparation)
T1 sequence (P30542 1-326): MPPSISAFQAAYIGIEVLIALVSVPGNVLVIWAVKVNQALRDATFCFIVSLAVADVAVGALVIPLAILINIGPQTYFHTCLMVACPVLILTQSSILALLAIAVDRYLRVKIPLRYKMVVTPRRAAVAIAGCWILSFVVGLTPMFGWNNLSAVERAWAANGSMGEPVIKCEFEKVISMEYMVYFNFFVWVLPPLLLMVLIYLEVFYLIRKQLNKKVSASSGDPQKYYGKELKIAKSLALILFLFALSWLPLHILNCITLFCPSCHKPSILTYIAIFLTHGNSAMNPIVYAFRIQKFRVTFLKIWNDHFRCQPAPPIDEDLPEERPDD
Protocol: 2.1 Human Adenosine A1 Receptor Binding Assay
Test compound is weighed, dissolved in DMSO to make a stock solution of 10 mM, diluted with DMSO to prepare working solutions, then 100-fold diluted to the indicated concentrations. Human recombinant adenosine A1 receptors expressed in CHO-K1 cells were used to prepare membranes in incubation buffer (20 mM HEPES (4-(2-hydroxyethyl)-1-piperazineethanesulfonic acid) pH 7.4, 10 mM MgCl2, 100 mM NaCl). Test compound or vehicle (2.2 μL) was added in 200 μL of membranes and incubated with 20 μL of 1 nM [^3H] DPCPX (8-cyclopentyl-1,3-dipropylxanthine) for 90 minutes at 25° C. Non-specific binding was estimated in the presence of 100 μM R(−)-PIA ((R)—N-(1-methyl-2-phenylethyl)adenosine). The incubation was stopped by vacuum filtration onto 0.3% PEI (polyethylenimine) presoaked GF/B filters using a harvester followed by four washes with ice-cold 50 mM Tris-HCl, pH 7.4, and the radioactivity on GF/B filtermats counted in a scintillation counter (PerkinElmer Topcount™) to determine [^3H] DPCPX specifically bound. Final concentration of vehicle DMSO is 1%.
(§1) Data is fitted using the non-linear curve fitting routines in Meth-IQ software (ID Business Solutions Ltd., UK). IC50 is converted to Ki by Cheng-Prusoff equation: Ki=IC50/(1+[L]/KD) where [L] is concentration of radiolabeled ligand used in the assay.

[2] = target: T2, Human recombinant adenosine A2A receptors (Homo sapiens, UniProt P29274); experiment: Human adenosine A2A receptor binding assay ([3H]CGS-21680); settings: for Ki: membranes of HEK-293 cells, 50 nM [3H]CGS-21680, 90 minutes at 25° C., read-out: hA2A Ki; for activity as dual antagonists of both A2A and A1 receptors: summary in words of the A2A and A1 binding results of Table 2
T2 construct: expressed in transfected cells; host or cells: HEK-293 cells (membrane preparation)
Protocol: 2.2 Human Adenosine A2A Receptor Binding Assay
Test compound is weighed, dissolved in DMSO to make a stock solution of 10 mM, diluted with DMSO to prepare working solutions, then 100-fold diluted to the indicated concentrations. Human recombinant adenosine A2A receptors expressed in HEK-293 cells were used to prepare membranes in incubation buffer (50 mM Tris-HCl, pH 7.4, 10 mM MgCl2, 1 mM EDTA, 2 U/ml Adenosine Deaminase). Test compound or vehicle (2.2 μL) was added in 200 μL of membranes and incubated with 20 μL of 50 nM [^3H] […] Non-specific binding was estimated in the presence of 50 μM NECA (5′-N-ethylcarboxamidoadenosine). The incubation was stopped by vacuum filtration onto 0.3% PEI (polyethylenimine) presoaked GF/B filters using a harvester followed by four washes with ice-cold 50 mM Tris-HCl, pH 7.4, and the radioactivity on GF/B filtermats counted in a scintillation counter (PerkinElmer TOPCOUNT™) to determine [^3H] […] Final concentration of vehicle DMSO is 1%.
as §1

T2 sequence (P29274 whole entry): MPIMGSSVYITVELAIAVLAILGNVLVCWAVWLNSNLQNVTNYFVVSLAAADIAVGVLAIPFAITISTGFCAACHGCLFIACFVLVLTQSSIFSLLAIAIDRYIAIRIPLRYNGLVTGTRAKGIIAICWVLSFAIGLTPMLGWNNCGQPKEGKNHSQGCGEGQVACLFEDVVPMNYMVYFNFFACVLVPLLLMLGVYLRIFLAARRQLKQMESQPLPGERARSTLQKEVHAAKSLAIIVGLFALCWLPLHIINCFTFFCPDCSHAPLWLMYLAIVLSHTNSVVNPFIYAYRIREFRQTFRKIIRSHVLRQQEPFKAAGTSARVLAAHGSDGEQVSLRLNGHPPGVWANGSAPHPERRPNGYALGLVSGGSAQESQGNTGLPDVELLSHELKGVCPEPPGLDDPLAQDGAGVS

Ki [1] [µM] | Ki [2] [µM] | activity as dual antagonists of both A2A and A1 receptors [2] | Compound
0.1 to 1 | < 0.02 |  | N#Cc1cccc(-c2nc(N)nc3c2cnn3Cc2ccc(N)cc2F)c1 [Compound 209, 3-(6-amino-1-(4-amino-2-fluorobenzyl)-1H-pyrazolo[3,4-d]pyrimidine-4-yl)benzonitrile]
≤ 0.1 | < 0.02 | potent activity as dual antagonists | N#Cc1cccc(-c2nc(N)nc3c2cnn3Cc2c(F)cccc2F)c1F [Compound 213, 3-(6-amino-1-(2,6-difluorobenzyl)-1H-pyrazolo[3,4-d]pyrimidine-4-yl)-2-fluorobenzonitrile]
0.1 to 1 | < 0.02 |  | N#Cc1cccc(-c2nc(N)nc3c2cnn3Cc2ccc(N)cc2F)n1 [Compound 219, 6-[6-amino-1-[(4-amino-2-fluoro-phenyl)methyl]pyrazolo[3,4-d]pyrimidine-4-yl]pyridine-2-carbonitrile]
> 10 | 1 to 5 |  | N#Cc1cncc(-c2nc(N)nc3c2cnn3Cc2ccc(N)cc2F)c1 [Compound 221, 5-[6-amino-1-[(4-amino-2-fluoro-phenyl)methyl]pyrazolo[3,4-d]pyrimidine-4-yl]pyridine-3-carbonitrile]
1 to 10 | 0.2 to 1 |  | N#Cc1cc(-c2nc(N)nc3c2cnn3Cc2c(F)cccc2F)ccn1 [Compound 234, 4-[6-amino-1-[(2,6-difluorophenyl)methyl]pyrazolo[3,4-d]pyrimidine-4-yl]pyridine-2-carbonitrile]
≤ 0.1 | < 0.02 | potent activity as dual antagonists | N#Cc1cccc(-c2nc(N)nc3c2cnn3Cc2ccc(N)c(C(F)(F)F)c2)c1F [Compound 211, 3-(6-amino-1-(4-amino-3-(trifluoromethyl)benzyl)-1H-pyrazolo[3,4-d]pyrimidine-4-yl)-2-fluorobenzonitrile]
≤ 0.1 | < 0.02 | potent activity as dual antagonists | Cc1cc(Cn2ncc3c(-c4cccc(C#N)c4F)nc(N)nc32)ccc1N [Compound 206, 3-(6-amino-1-(4-amino-3-methylbenzyl)-1H-pyrazolo[3,4-d]pyrimidine-4-yl)-2-fluorobenzonitrile]
0.1 to 1 |  |  | CCn1c(=O)c2c(nc(/C=C/c3ccc(OC)c(OC)c3)n2C)n(CC)c1=O [Istradefylline, reference compound]
> 10 | 1 to 5 |  | Cc1cc(Cn2ncc3c(-c4ccnc(C#N)c4)nc(N)nc32)ccc1N [Compound 230, 4-(6-amino-1-(4-amino-3-methylbenzyl)-1H-pyrazolo[3,4-d]pyrimidine-4-yl)picolinonitrile]
0.1 to 1 | < 0.02 |  | N#Cc1ccnc(-c2nc(N)nc3c2cnn3Cc2ccc(N)c(C(F)(F)F)c2)c1 [Compound 235, 2-[6-amino-1-[[4-amino-3-(trifluoromethyl)phenyl]methyl]pyrazolo[3,4-d]pyrimidine-4-yl]pyridine-4-carbonitrile]
1 to 10 | 0.2 to 1 |  | N#Cc1ccnc(-c2nc(N)nc3c2cnn3Cc2ccc(N)cc2)c1 [Compound 216, 2-(6-amino-1-(4-aminobenzyl)-1H-pyrazolo[3,4-d]pyrimidine-4-yl)isonicotinonitrile]
0.1 to 1 | 0.02 to 0.2 |  | N#Cc1ccnc(-c2nc(N)nc3c2cnn3Cc2c(F)cccc2F)c1 [Compound 232, 2-(6-amino-1-(2,6-difluorobenzyl)-1H-pyrazolo[3,4-d]pyrimidine-4-yl)isonicotinonitrile]
≤ 0.1 | < 0.02 | potent activity as dual antagonists | N#Cc1cccc(-c2nc(N)nc3c2cnn3Cc2c(F)cc(N)cc2F)c1 [Compound 207, 3-(6-amino-1-(4-amino-2,6-difluorobenzyl)-1H-pyrazolo[3,4-d]pyrimidine-4-yl)benzonitrile]
